The results in this text go back to ChEMBL document CHEMBL1122361, “Synthesis and antineoplastic activity of 3'-azido and 3'-amino analogues of pyrimidine deoxyribonucleoside” (1983).

Active and inactive are the calls of the source. The rule behind the calls is not given here.

Test [1] concerns L1210. Kind of test: Ability to effect the replication of L1210 cells in vitro. In kind it is functional. As to conditions: Mus musculus, read-out: ID50 (the source's name).
Test [2] is described as follows: Ability to effect the replication of S-180 cells in vitro. In kind it is functional. The following applies: Mus musculus, read-out: ID50 (the source's name).
The next test deals with Mus musculus. Kind of test: Ratio of treated to that of control was determined in mice tested in vivo(on day 31). In kind it is functional.
The subject of test [3] is L1210. Kind of test: Ability to effect the replication of L1210 cells in vitro; IN-Inactive. In kind it is functional, cell-based. As to conditions: Mus musculus.

Regarding `N[C@H]1C[C@H](n2ccc(=O)[nH]c2=O)O[C@@H]1CO`, the IC50 in the test on L1210 [1] was determined as 18 µM; in test [2], 50 µM. A word on the T/C: it is the ratio of treated to control. For the compound `Nc1ccn([C@H]2C[C@H](N)[C@@H](CO)O2)c(=O)n1`, the figures for the IC50 (in the test on L1210 [1]; in test [2]) were 0.7 µM and 4 µM, respectively. In addition, the T/C in the test with Mus musculus worked out at 283%.

Take `[N-]=[N+]=N[C@H]1C[C@H](n2ccc(N)nc2=O)O[C@@H]1CO`: the ID50 entry in the test on L1210 [3] is “inactive”.

As for `[N-]=[N+]=N[C@H]1C[C@H](n2ccc(=O)[nH]c2=O)O[C@@H]1CO`, the ID50 result in the test with L1210 [3] was “inactive”.
